Experimental data published in US11998600B2, “Enhancing the therapeutic activity of an immune checkpoint inhibitor” (MaineHealth, priority 2015, dated 2024).

Tests used:
Fak = Fak phosphorylation in endothelial cells attached to collagen peptides; format: cell-based, human; conditions: serum free conditions
Method: (§1) Whole cell and CAM tissue lysates were collected in RIPA buffer supplemented with 1× protease inhibitor and 1× phosphatase inhibitor and were run on polyacrylamide gels using denaturing conditions. Prior to loading the gels, 6× sample buffer was added to each of the lysates (final concentration 1×) and boiled for five minutes. Twenty to 50 μg of total protein were loaded into each lane. For detection of proteins larger than 50 kD, 10% gels were used; for proteins smaller than 50 kD 15% gels were used. Gels were run at 60 volts (v) until the dye front passed through the stacking gel, and then the voltage was increased to 100V for the remainder of the separation. Precision Plus protein standards (Bio-Rad) were used to visualize migration. […] Western blot bands were quantified using Image J software based on pixel intensity.
(§2) Because both RGD containing peptides bind αvβ3 coupled with the differential effect of these peptides on angiogenesis and inflammation, it was determined whether the RGD peptides differentially altered αvβ3-mediated signaling. […] Therefore, the differential phosphorylation of these protein kinases following the early mechanical-mediated interactions with the RGD containing collagen peptides was assessed. […]

[1] = test system: chick chorioallantoic membrane (CAM); assay: Chick CAM inflammation assay, induction by RGD collagen peptides; format: in vivo; conditions: chick CAM, no cortisone acetate; FIG. 5D
Method: (§3) The chick chorioallantoic membrane (CAM) assays were carried out with some modifications (19). For all experiments CAMs of 10-day-old chick embryos obtained from Charles River (North Franklin, CT) were separated from the shell membrane. Filter discs either non-treated (inflammation assays) pretreated (angiogenesis assays) with cortisone acetate (3.0 mg/ml) containing RPMI only or FGF-2 (40 ng). CAMs were either non-treated or treated topically with Mab XL313, XL166 or a non-specific control antibody (10 μg/embryo every 24 h for three consecutive treatments). […] At the end of the incubation period the embryos were sacrificed and the CAM tissues were analyzed. Angiogenesis was quantified by counting the number of angiogenic branching blood vessels within the area of the filter disc. The angiogenic index was determined by subtracting the mean number of blood vessel branch points from untreated CAMs from each experimental condition. Eight to twelve embryos were used per condition and experiments were repeated at least three times.
The effects of the soluble RGD containing collagen peptides on inflammation were examined.

HUVEC = assay: Cell proliferation assay, HUVEC; format: cell-based, human; conditions: peptide 100 ng/ml, 24 hours; FIG. 8C
Method: (§4) HUVECs (WT, shYAP1 or control transfected) or HRMVECs were plated at 2,000 cells per well with complete EGM-2 media containing 2.0% FBS in the absence or presence of P-1, P-2 or P-C (100 ng/ml) and allowed to grow for 24 hours. Cell growth was monitored using a BrdU or MMT assay kits according to manufacturer's instructions. All assays were completed at least three times in triplicate wells.

HRMVEC = assay: Cell proliferation assay, HRMVEC; format: cell-based, human; conditions: peptide 100 ng/ml, 24 hours; FIG. 8D
Method: as §4

YAP = assay: Nuclear YAP in HRMVEC stimulated with soluble peptide, with Src or P38MAPK inhibitor; format: cell-based, human; conditions: inhibitors 10 μM; FIGS. 8E and 8F
[2] = test system: chick chorioallantoic membrane (CAM); assay: Chick CAM angiogenesis assay, induction by RGD collagen peptides; format: in vivo; conditions: inhibitor SB202190 10 μM vs DMSO control; FIG. 6F
Method: as §3
To examine this possibility, the effects of the RGDKGE (SEQ ID NO. 1) containing collagen peptide on angiogenesis and inflammation in the chick CAM were assessed.

P38MAPK = P38MAPK phosphorylation in HUVECs attached to collagen peptides, Western blot; format: cell-based, human; conditions: PP2 10 μM vs DMSO; FIG. 7F
Method: (§5) Endothelial cells (HUVECs or HRMVECs) were incubated in serum free media with 1 mM MgCl2, 0.2 mM MnCl2 in the presence of a Src inhibitor, PP2, (10 μM) a P38MAPK inhibitor, SB202190 (10 μM) or vehicle only (DMSO) for 10 min at 37° C. Treated cells were then seeded on to immobilized P-1 and P-2 and lysates were collected at 15 min.
as §1, with “migration. Protein was transferred to nitrocellulose membranes using a wet tank system and blocked for 1 h using 10% non-fat dried milk in tris-buffered saline with 0.01% Tween-20 (TBS-T).” for “migration.”, “intensity. […]” for “intensity.”

β3-integrin = β3-integrin phosphorylation in endothelial cells attached to collagen peptides, Western blot; format: cell-based, human; conditions: PP2 10 μM vs DMSO; FIG. 7E
Method: as §5
as §1, with “used.” for “used. Gels were run at 60 volts (v) until the dye front passed through the stacking gel, and then the voltage was increased to 100V for the remainder of the separation. Precision Plus protein standards (Bio-Rad) were used to visualize migration.”
as §2

[3] = test system: endothelial cells in which YAP was knocked down; assay: Cell proliferation assay, endothelial cells transduced with YAP specific shRNA; format: cell-based, human; conditions: soluble peptide (FIG. 8H) or VEGF 50 ng/ml (FIG. 8I)
Method: as §4
Raw cells were transfected with 1 μg of HuSH shRNA plasmids for collagen type I, alpha 2 using Amaxa cell line nucleofector kit V (program #T024). Constructs expressing 21-nucleotide short hairpin RNAs (shRNA) targeting human YAP (shYAP) or non-targeting control (shNT, Sigma-Aldrich, SHC002) were used. Humantargeting shYAP1 lentiviral shRNA was obtained from the Thermo Scientific RNAi consortium (TRCN0000107625). Constructs were packaged into lentivirus, pseudotyped with the vesicular stomatitis virus glycoprotein. Transduction was performed by incubating cells with lentivirus, and stably transduced cells were subsequently used for studies. All cell lines were verified by morphology and mouse and human YAP-specific PCR. […] Endothelial cells were certified mycoplasma-negative by PCR (Lonza), and primary cell cultures were used within the indicated passage numbers. Cells were transduced and selected using puromycin.
Endothelial cells with YAP specific or non-specific shRNAs were transduced.

[4] = test system: human retinal microvascular endothelial cells (HRMVEC); assay: Cell adhesion to immobilized RGD collagen peptides, HRMVEC; format: cell-based; conditions: peptides immobilized 100 μg/ml; FIG. 1C
Method: (§6) RGD peptides (P-1, P-2, P-3, P-4, P-5, and P-C) were immobilized (100 μg/ml) to wells. HUVEC, HMVEC, HRMVEC, and HDF cells were suspended in adhesion buffer (RPMI containing 1 mM MgCl2, 0.2 mM MnCl2 and 0.5% BSA) and 1×10^5 cells were seeded into the wells in the presence or absence of P4C10, LM609, P1F6 or control antibodies (100 μg/ml). Cells were allowed to attach for 25 min at 37° C. Media containing non-attached cells was aspirated and attached cells were washed with PBS and stained with crystal violet. Cell adhesion was quantified by measuring the optical density of eluted dye. Adhesion assays were completed at least three times with triplicate wells.

[5] = test system: human microvascular endothelial cells (HMVEC); assay: Cell adhesion to immobilized RGD collagen peptides, HMVEC; format: cell-based; conditions: peptides immobilized 100 μg/ml; FIG. 1B
Method: as §6

[6] = test system: human umbilical vein endothelial cell (HUVEC); assay: Cell adhesion to immobilized RGD collagen peptides, HUVEC; format: cell-based; conditions: peptides immobilized 100 μg/ml; 25 min at 37° C; FIG. 1A
Method: as §6

human dermal fibroblasts = assay: Cell adhesion to immobilized RGD collagen peptides, HDF; format: cell-based; conditions: peptides immobilized 100 μg/ml; FIG. 1D
Method: as §6

[7] = test system: chick chorioallantoic membrane (CAM); assay: Chick CAM inflammation assay, FGF-2 induced, antibody treatment; format: in vivo; conditions: chick CAM, FGF-2 stimulated; vs no treatment or control antibody; FIG. 3E
Method: as §3, with “Eight to twelve embryos were used per condition and experiments were repeated at least three times.” left out
The chick CAM has been routinely used to assess inflammation and granulation tissue formation, which are largely dependent on infiltration of chick heterophils (the avian equivalent of neutrophils), macrophages and activated fibroblasts (36,37). To study the potential differential biological impact of RGD epitopes, FGF-2 induced inflammation was examined by carrying out similar experiments in the absence of cortisone acetate and quantifying CAM thickening. […]

## KGDRGDAPG [Mab P-1, Synthetic RGDAPG containing collagen type-I peptide, Colla1 742-750; made with flanking cysteines (…)]
Fak
  Fak phosphorylation following ligation of peptide: Minimal Fak phosphorylation
[1]
  CAM inflammation following stimulation with peptide: Minimal evidence of tissue inflammation
HUVEC
  HUVEC growth with soluble peptide: minimal effect
HRMVEC
  HRMVEC growth with soluble peptide: minimal effect

## Oc1ccc(-c2nc(-c3ccncc3)c(-c3ccc(F)cc3)[nH]2)cc1 [SB202190, reference compound]
YAP
  reduction of nuclear YAP accumulation in P-2 stimulated endothelial cells as compared to control: approximately 50%
[2]
  effect on P-2 induced angiogenesis in the chick CAM: reduced

## CC(C)(C)n1nc(-c2ccc(Cl)cc2)c2c(N)ncnc21 [PP2, reference compound]
P38MAPK
  P38MAPK phosphorylation following binding to collagen peptide P-2, with inhibitor: reduced
β3-integrin
  β3 phosphorylation following binding to collagen peptide P-2, with inhibitor: reduced
YAP
  reduction of nuclear YAP accumulation in P-2 stimulated endothelial cells as compared to control: approximately 50%

## VEGF
[3]
  endothelial cell growth in YAP knock down cells: enhanced growth

## QGPSGAPGE [P-C, reference compound]
[4]
  HRMVEC adhesion to immobilized peptides: failed to support interactions
[1]
  CAM inflammation following stimulation with peptide: Minimal evidence of tissue inflammation
[5]
  HMVEC adhesion to immobilized peptides: failed to support interactions
[6]
  HUVEC adhesion to immobilized peptides: failed to support adhesion
Human dermal fibroblasts
  HDF adhesion to immobilized peptides: failed to support interactions

## CC(=O)OCC(=O)[C@@]1(O)CC[C@H]2[C@@H]3CCC4=CC(=O)CC[C@]4(C)[C@H]3C(=O)C[C@@]21C [cortisone acetate, reference compound]
[7]
  reduction of CAMs exhibiting inflammation (thickening): greater than 80%

## RGPRGDQGP [Mab P-5, Synthetic RGD containing collagen type-I peptide, Colla2 819-827 (…)]
[6]
  HUVEC adhesion to immobilized peptides: highest levels of adhesion
